{
  "source": "patent US20260285850A1",
  "about": "“SUBSTITUTED OXAZOLIDINONES AND IMIDAZOLINONES AS HERBICIDES” (FMC CORPORATION, priority 2023, published 2026)",
  "assay_type_in_all_cases": "in vivo",
  "key": {"[1]": {"system": "ducksalad (Heteranthera limosa)", "test": "Test B flooded paddy test, visual plant response rating 0-100", "conditions": "250 g ai/ha, Flood, applied to paddy water, evaluated after 13 days", "outline": "(§1)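 Greenhouse, 13 d. Seedlings at 2-leaf stage, pots flooded to 3 cm, compound delivered into floodwater, water level held constant. Evaluated visually relative to controls.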"}, "rice (Oryza sativa)": {"system": "rice (Oryza sativa)", "test": "Test B flooded paddy test, visual plant response rating 0-100", "conditions": "250 g ai/ha, Flood, applied to paddy water, evaluated after 13 days", "outline": "as §1"}, "[2]": {"system": "barnyardgrass (Echinochloa crusgalli)", "test": "Test B flooded paddy test, visual plant response rating 0-100", "conditions": "250 g ai/ha, Flood, applied to paddy water, evaluated after 13 days", "outline": "as §1"}, "[3]": {"system": "sedge, umbrella (small-flower umbrella sedge, Cyperus difformis)", "test": "Test B flooded paddy test, visual plant response rating 0-100", "conditions": "250 g ai/ha, Flood, applied to paddy water, evaluated after 13 days", "outline": "as §1"}, "[4]": {"system": "horseweed (Erigeron canadensis)", "test": "Test A postemergence application, visual injury rating 0-100", "outline": "(§2)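 Plants in a loam and sand soil blend were treated with each test chemical, in a non-phytotoxic solvent system including surfactant, either sprayed on seeded soil before emergence or applied after emergence at the one- to two-leaf stage. Ten days later in the greenhouse, plants were compared with untreated controls and visually rated from 0 (no effect) to 100 (complete control).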"}, "[5]": {"system": "blackgrass (Alopecurus myosuroides)", "test": "Test A postemergence application, visual injury rating 0-100", "outline": "as §2"}, "soybean (Glycine max) [6]": {"system": "soybean (Glycine max)", "test": "Test A postemergence application, visual injury rating 0-100", "outline": "as §2"}, "kochia (Bassia scoparia) [7]": {"system": "kochia (Bassia scoparia)", "test": "Test A postemergence application, visual injury rating 0-100", "outline": "as §2"}, "[8]": {"system": "oat, wild (wild oat, Avena fatua)", "test": "Test A postemergence application, visual injury rating 0-100", "outline": "as §2"}, "[9]": {"system": "ragweed (common ragweed, Ambrosia artemisiifolia)", "test": "Test A postemergence application, visual injury rating 0-100", "outline": "as §2"}, "[10]": {"system": "ryegrass, Italian (italian ryegrass, Lolium multiflorum)", "test": "Test A postemergence application, visual injury rating 0-100", "outline": "as §2"}, "[11]": {"system": "green foxtail (Setaria viridis)", "test": "Test A postemergence application, visual injury rating 0-100", "outline": "as §2"}, "[12]": {"system": "wheat (Triticum aestivum)", "test": "Test A postemergence application, visual injury rating 0-100", "outline": "as §2"}, "[13]": {"system": "barnyardgrass (Echinochloa crus-galli)", "test": "Test A postemergence application, visual injury rating 0-100", "outline": "as §2"}, "[14]": {"system": "palmer (palmer amaranth, palmer pigweed, Amaranthus palmeri)", "test": "Test A postemergence application, visual injury rating 0-100", "outline": "as §2"}, "corn (Zea mays) [15]": {"system": "corn (Zea mays)", "test": "Test A postemergence application, visual injury rating 0-100", "outline": "as §2"}, "[16]": {"system": "blackgrass (Alopecurus myosuroides)", "test": "Test A preemergence soil spray, visual injury rating 0-100", "conditions": "10 days", "outline": "as §2"}, "soybean (Glycine max) [17]": {"system": "soybean (Glycine max)", "test": "Test A preemergence soil spray, visual injury rating 0-100", "conditions": "10 days", "outline": "as §2"}, "kochia (Bassia scoparia) [18]": {"system": "kochia (Bassia scoparia)", "test": "Test A preemergence soil spray, visual injury rating 0-100", "conditions": "10 days", "outline": "as §2"}, "[19]": {"system": "oat, wild (wild oat, Avena fatua)", "test": "Test A preemergence soil spray, visual injury rating 0-100", "conditions": "10 days", "outline": "as §2"}, "[20]": {"system": "ragweed (common ragweed, Ambrosia artemisiifolia)", "test": "Test A preemergence soil spray, visual injury rating 0-100", "conditions": "10 days", "outline": "as §2"}, "[21]": {"system": "ryegrass, Italian (italian ryegrass, Lolium multiflorum)", "test": "Test A preemergence soil spray, visual injury rating 0-100", "conditions": "10 days", "outline": "as §2"}, "[22]": {"system": "green foxtail (Setaria viridis)", "test": "Test A preemergence soil spray, visual injury rating 0-100", "conditions": "10 days", "outline": "as §2"}, "[23]": {"system": "wheat (Triticum aestivum)", "test": "Test A preemergence soil spray, visual injury rating 0-100", "conditions": "10 days", "outline": "as §2"}, "[24]": {"system": "barnyardgrass (Echinochloa crus-galli)", "test": "Test A preemergence soil spray, visual injury rating 0-100", "conditions": "10 days", "outline": "as §2"}, "[25]": {"system": "palmer (palmer amaranth, palmer pigweed, Amaranthus palmeri)", "test": "Test A preemergence soil spray, visual injury rating 0-100", "conditions": "10 days", "outline": "as §2"}, "corn (Zea mays) [26]": {"system": "corn (Zea mays)", "test": "Test A preemergence soil spray, visual injury rating 0-100", "conditions": "10 days", "outline": "as §2"}, "[27]": {"conditions": "62 g ai/ha, postemergence, 10 days, 0 = no effect, 100 = complete control"}, "[28]": {"conditions": "Postemergence, 16 g ai/ha, greenhouse 10 days, 0 no effect, 100 complete control"}, "[29]": {"conditions": "62 g ai/ha, 0 = no effect, 100 = complete control"}},
  "data": [
    {"smiles": "CC(C)OC(=O)C1=CCC(NC(=O)C2(C)CN(c3cc(Cl)cc(Cl)c3)C(=O)O2)C1", "note": "(centres unmarked) [Compound 106]", "values": [
      {"measurement": "Plant response rating, Ducksalad (0 to 100 scale, 0 is no effect and 100 is complete control)", "setting": "[1]", "result": 85},
      {"measurement": "Plant response rating, Rice (0 to 100 scale, 0 is no effect and 100 is complete control)", "setting": "rice (Oryza sativa)", "result": 10},
      {"measurement": "Plant response rating, Barnyardgrass (0 to 100 scale, 0 is no effect and 100 is complete control)", "setting": "[2]", "result": 65},
      {"measurement": "Plant response rating, Sedge, Umbrella (0 to 100 scale, 0 is no effect and 100 is complete control)", "setting": "[3]", "result": 98},
      {"measurement": "Horseweed plant response rating (0-100)", "setting": "[4]; [27]", "result": 0},
      {"measurement": "Horseweed plant response rating (0 to 100 scale)", "setting": "[4]; [28]", "result": 0},
      {"measurement": "Blackgrass plant response rating (0-100)", "setting": "[5]; [27]", "result": 0},
      {"measurement": "Blackgrass plant response rating (0 to 100 scale)", "setting": "[5]; [28]", "result": 0},
      {"measurement": "Soybean plant response rating (0-100)", "setting": "soybean (Glycine max) [6]; [27]", "result": 0},
      {"measurement": "Soybean plant response rating (0 to 100 scale)", "setting": "soybean (Glycine max) [6]; [28]", "result": 0},
      {"measurement": "Kochia plant response rating (0-100)", "setting": "kochia (Bassia scoparia) [7]; [27]", "result": 0},
      {"measurement": "Kochia plant response rating (0 to 100 scale)", "setting": "kochia (Bassia scoparia) [7]; [28]", "result": 0},
      {"measurement": "Oat, Wild plant response rating (0-100)", "setting": "[8]; [27]", "result": 0},
      {"measurement": "Oat, Wild plant response rating (0 to 100 scale)", "setting": "[8]; [28]", "result": 0},
      {"measurement": "Ragweed plant response rating (0-100)", "setting": "[9]; [27]", "result": 0},
      {"measurement": "Ragweed plant response rating (0 to 100 scale)", "setting": "[9]; [28]", "result": 0},
      {"measurement": "Ryegrass, Italian plant response rating (0-100)", "setting": "[10]; [27]", "result": 0},
      {"measurement": "Ryegrass, Italian plant response rating (0 to 100 scale)", "setting": "[10]; [28]", "result": 0},
      {"measurement": "Foxtail, Green plant response rating (0-100)", "setting": "[11]; [27]", "result": 0},
      {"measurement": "Foxtail, Green plant response rating (0 to 100 scale)", "setting": "[11]; [28]", "result": 0},
      {"measurement": "Wheat plant response rating (0-100)", "setting": "[12]; [27]", "result": 0},
      {"measurement": "Wheat plant response rating (0 to 100 scale)", "setting": "[12]; [28]", "result": 0},
      {"measurement": "Barnyardgrass plant response rating (0-100)", "setting": "[13]; [27]", "result": 0},
      {"measurement": "Barnyardgrass plant response rating (0 to 100 scale)", "setting": "[13]; [28]", "result": 0},
      {"measurement": "Pigweed, Palmer plant response rating (0-100)", "setting": "[14]; [27]", "result": 0},
      {"measurement": "Pigweed, Palmer plant response rating (0 to 100 scale)", "setting": "[14]; [28]", "result": 0},
      {"measurement": "Corn plant response rating (0-100)", "setting": "corn (Zea mays) [15]; [27]", "result": 0},
      {"measurement": "Corn plant response rating (0 to 100 scale)", "setting": "corn (Zea mays) [15]; [28]", "result": 0},
      {"measurement": "Blackgrass plant response rating", "setting": "[16]; 16 g ai/ha, 0 to 100 scale", "result": 0},
      {"measurement": "Blackgrass plant response rating (0-100)", "setting": "[16]; [29]", "result": 0},
      {"measurement": "Soybean plant response rating", "setting": "soybean (Glycine max) [17]; 16 g ai/ha, 0 to 100 scale", "result": 0},
      {"measurement": "Soybean plant response rating (0-100)", "setting": "soybean (Glycine max) [17]; [29]", "result": 0},
      {"measurement": "Kochia plant response rating", "setting": "kochia (Bassia scoparia) [18]; 16 g ai/ha, 0 to 100 scale", "result": 0},
      {"measurement": "Kochia plant response rating (0-100)", "setting": "kochia (Bassia scoparia) [18]; [29]", "result": 0},
      {"measurement": "Oat, Wild plant response rating", "setting": "[19]; 16 g ai/ha, 0 to 100 scale", "result": 0},
      {"measurement": "Oat, Wild plant response rating (0-100)", "setting": "[19]; [29]", "result": 0},
      {"measurement": "Ragweed plant response rating", "setting": "[20]; 16 g ai/ha, 0 to 100 scale", "result": 0},
      {"measurement": "Ragweed plant response rating (0-100)", "setting": "[20]; [29]", "result": 0},
      {"measurement": "Ryegrass, Italian plant response rating", "setting": "[21]; 16 g ai/ha, 0 to 100 scale", "result": 0},
      {"measurement": "Ryegrass, Italian plant response rating (0-100)", "setting": "[21]; [29]", "result": 0},
      {"measurement": "Foxtail, Green plant response rating", "setting": "[22]; 16 g ai/ha, 0 to 100 scale", "result": 0},
      {"measurement": "Foxtail, Green plant response rating (0-100)", "setting": "[22]; [29]", "result": 0},
      {"measurement": "Wheat plant response rating", "setting": "[23]; 16 g ai/ha, 0 to 100 scale", "result": 0},
      {"measurement": "Wheat plant response rating (0-100)", "setting": "[23]; [29]", "result": 0},
      {"measurement": "Barnyardgrass plant response rating", "setting": "[24]; 16 g ai/ha, 0 to 100 scale", "result": 0},
      {"measurement": "Barnyardgrass plant response rating (0-100)", "setting": "[24]; [29]", "result": 0},
      {"measurement": "Pigweed, Palmer plant response rating", "setting": "[25]; 16 g ai/ha, 0 to 100 scale", "result": 0},
      {"measurement": "Pigweed, Palmer plant response rating (0-100)", "setting": "[25]; [29]", "result": 0},
      {"measurement": "Corn plant response rating", "setting": "corn (Zea mays) [26]; 16 g ai/ha, 0 to 100 scale", "result": 0},
      {"measurement": "Corn plant response rating (0-100)", "setting": "corn (Zea mays) [26]; [29]", "result": 0}
    ]}
  ]
}
